Assay results as given in patent publication US12187761B2, “Compounds, compositions, and methods for the treatment of disease” (F-star Therapeutics, Inc., priority 2017, dated 2025).

What was measured:
[1] = system: IRF; assay: Induction of IRF in THP1 dual cells (ISG54 promoter Lucia reporter); type: cell-based; details: 20 h incubation, Lucia reporter (QUANTI-luc)
Procedure: (§1) Example 6. In Vitro Induction of IRF and NF-κβ in THP1 Cells Table 2
(§2) THP1 dual cells grown in complete media were treated with various concentrations of a compound of the present disclosure or DMSO control. Dual cells carry both secreted embryonic alkaline phosphatase (SEAP) reporter gene under the control of an IFN-β minimal promoter fused to five copies of the NF-kB consensus transcriptional response element to measure NF-kB activity and Lucia reporter gene under the control of an ISG54 minimal promoter to measure IRF activity. After 20 h incubation, IRF activity was assessed using QUANTI-luc to measure levels of Lucia and NF-kB activity was determined by measure SEAP levels at 620-655 nm. % induction was calculated from fold change in luminescence/absorbance compared to DMSO treated sample. […] EC50 values were generated by curve fit in Xlfit.
(§3) Cells grown in complete media were treated with various concentrations of a compound of the disclosure or DMSO control. Dual cells carry both secreted embryonic alkaline phosphatase (SEAP) reporter gene under the control of an IFN-β minimal promoter fused to five copies of the NF-kB consensus transcriptional response element to measure NF-kB activity and Lucia reporter gene under the control of an ISG54 minimal promoter to measure IRF activity. After 20 h incubation, IRF activity was assessed using QUANTI-luc to measure levels of Lucia and NF-kB activity was determined by measure SEAP levels at 620-655 nm. % induction was calculated from fold change in luminescence/absorbance compared to DMSO treated sample. EC50 values are generated by curve fit in Xlfit.

[2] = system: NF-κβ; assay: Induction of NF-κβ in THP1 dual cells (SEAP reporter); type: cell-based; details: 20 h incubation, SEAP levels at 620-655 nm
Procedure: as §1, §2, §3

Row | SMILES | EC50 [1] | EC50 [2]
1 | Nc1ncnc2c1ncn2[C@@H]1O[C@@H]2COP(=O)(SCc3ccc(OC(=O)c4ccc(OCCCCCCCCCCO)cc4)cc3)O[C@H]3[C@@H](F)[C@H](n4ccc(=O)[nH]c4=O)O[C@@H]3COP(=O)(O)O[C@H]2[C@H]1F (some centres unmarked) [Compound 2] | < 0.05 µM | 0.5 to 1 µM
2 | NCCCOCCOCCOCCOc1ccc(C(=O)Oc2ccc(CSP3(=O)OC[C@H]4O[C@@H](n5cnc6c(N)ncnc65)[C@H](F)[C@@H]4OP(=O)(O)OC[C@H]4O[C@@H](n5ccc(=O)[nH]c5=O)[C@H](F)[C@@H]4O3)cc2)cc1 (some centres unmarked) [Compound 7] | 0.05 to 0.5 µM | 1 to 2 µM
3 | NCCCCCCCCCCOc1ccc(C(=O)Oc2ccc(CSP3(=O)OC[C@H]4O[C@@H](n5cnc6c(N)ncnc65)[C@H](F)[C@@H]4OP(=O)(O)OC[C@H]4O[C@@H](n5ccc(=O)[nH]c5=O)[C@H](F)[C@@H]4O3)cc2)cc1 (some centres unmarked) [Compound 1] | < 0.05 µM | 0.5 to 1 µM
4 | C=CCCC(=O)NCCCCCCCCCCCCOc1ccc(C(=O)Oc2ccc(CSP3(=O)OC[C@H]4O[C@@H](n5cnc6c(N)ncnc65)[C@H](F)[C@@H]4OP(=O)(O)OC[C@H]4O[C@@H](n5ccc(=O)[nH]c5=O)[C@H](F)[C@@H]4O3)cc2)cc1 (some centres unmarked) [Compound 8] | 1 to 2 µM | > 2 µM
